Measured values taken from US20250340591A1, “COMPOSITION FOR PREVENTING OR TREATING INFLAMMATORY BOWEL DISEASE CONTAINING NOVEL COMPOUND” (ANYGEN CO., LTD., priority 2021, published 2025).
One block for each molecule: values may come before it. Square brackets hold non-standard residues; d marks the D form. Ends that are not written are not given here. Peptide text beside a SMILES is read from it. * marks the point of attachment. His(Trt) = N[C@@H](Cc1cn(C(c2ccccc2)(c2ccccc2)c2ccccc2)cn1)C(=O)O; His(τ-CHPh2) = N[C@@H](Cc1cn(C(c2ccccc2)c2ccccc2)cn1)C(=O)O; Tyr(3-NO2) = N[C@@H](Cc1ccc(O)c([N+](=O)[O-])c1)C(=O)O; Biotin = O=C1N[C@H]2[C@H](CS[C@H]2CCCCC(=O)*)N1; dPhe(4-CF3) = N[C@H](Cc1ccc(C(F)(F)F)cc1)C(=O)O; dPhe(4-Me) = Cc1ccc(C[C@@H](N)C(=O)O)cc1; Benzhydryl = c1ccc(C(c2ccccc2)*)cc1; Octanoyl = CCCCCCCC(=O)*

What was measured:
GPR39 = biological target: T1, GPR39 (Homo sapiens, UniProt O43194); assay: luciferase assay system (SRE luciferase reporter gene, CV-1 cells expressing GPR39); assay type: cell-based; design: expressed in transfected cells; host or cells: CV-1 fibroblast cell line (Korea Cell Line Bank), adenoviral transduction at 50 MOI
T1 sequence (O43194 1-453): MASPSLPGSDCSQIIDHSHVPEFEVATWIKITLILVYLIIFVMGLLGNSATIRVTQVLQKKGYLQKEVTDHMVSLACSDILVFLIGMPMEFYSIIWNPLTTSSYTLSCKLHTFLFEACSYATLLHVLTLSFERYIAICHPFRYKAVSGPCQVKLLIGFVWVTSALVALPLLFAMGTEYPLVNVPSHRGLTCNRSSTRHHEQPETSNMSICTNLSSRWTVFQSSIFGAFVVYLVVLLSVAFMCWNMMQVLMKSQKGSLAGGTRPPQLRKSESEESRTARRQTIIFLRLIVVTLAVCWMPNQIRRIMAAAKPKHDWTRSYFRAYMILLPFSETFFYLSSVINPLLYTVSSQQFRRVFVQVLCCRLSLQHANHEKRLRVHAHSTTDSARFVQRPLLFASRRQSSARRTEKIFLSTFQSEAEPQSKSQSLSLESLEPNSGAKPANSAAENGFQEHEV

[1] = biological target: T2, GPR39 (G protein coupled receptor 39) (UniProt O43194 1-453, limits assumed); assay: cell-based or functional assay
T2 sequence (looked up): T1 sequence (O43194 1-453)

[2] = biological target: T2, GPR39 (G protein coupled receptor 39); assay: cell-based or functional assay; remark: listed apart in the source
human GPR39 = biological target: T3, human GPR39 (human, UniProt O43194 1-453); assay: cell-based or functional assay
T3 sequence (looked up): T1 sequence (O43194 1-453)

Molecule: CCCCCCCC(=O)NCCCC[C@H](NC(=O)[C@@H](N)Cc1cn(C(c2ccccc2)(c2ccccc2)c2ccc(C)cc2)cn1)C(=O)N[C@@H](Cc1ccccc1)C(=O)N[C@@H](Cc1ccc(O)cc1)C(=O)O [HKFY-5, N2-(Nt-(diphenyl(p-tolyl)methyl)-L-histidyl)-N6-octanoyl-L-lysyl-L-phenylalanyl-L-tyrosine]
- ECmax (−fold induction over basal) (GPR39): 16 ± 1.7 fold induction over basal

Molecule: CCCCCCCC(=O)NCCCC[C@H](NC(=O)[C@@H](N)Cc1cn(CC2c3ccccc3-c3ccccc32)cn1)C(=O)N[C@@H](Cc1ccccc1)C(=O)N[C@@H](Cc1ccc(O)cc1)C(=O)O [HKFY-18]
- ECmax (−fold induction over basal) (GPR39): 10 ± 1.48 fold induction over basal

Molecule: CCCCCCCC(=O)NCCCC[C@H](NC(=O)[C@H](Cc1cn(C(c2ccccc2)(c2ccccc2)c2ccccc2)cn1)NC(=O)CCCC[C@@H]1SC[C@@H]2NC(=O)N[C@@H]21)C(=O)N[C@@H](Cc1ccccc1)C(=O)N[C@@H](Cc1ccc(O)cc1)C(=O)O [HKFY-2, N6-octanoyl-N2-(Na-(5-((3aS,4S,6aR)-2-oxohexahydro-1H-thieno[3,4-d]imidazol-4-yl)pentanoyl)-Nt-trityl-L-histidyl)-L-lysyl-L-phenylalanyl-L-tyrosine] (Biotin-[His(Trt)]K(Octanoyl)FY-OH)
- ECmax (−fold induction over basal) (GPR39): 15 ± 1.87 fold induction over basal

Molecule: CCCCCCCC(=O)NCCCC[C@H](NC(=O)[C@@H](N)Cc1cn(C(c2ccccc2)(c2ccccc2)c2ccccc2)cn1)C(=O)N[C@@H](Cc1ccccc1)C(=O)N[C@@H](Cc1ccc(O)cc1)C(=O)N[C@@H](CO)C(=O)N[C@@H](Cc1c[nH]cn1)C(=O)N[C@@H](CCC(N)=O)C(=O)N[C@@H](CCC(N)=O)C(=O)N[C@@H](C)C(=O)N[C@@H](CCCNC(=N)N)C(=O)N[C@@H](Cc1ccccc1)C(N)=O [HKFY-40, (S)-2-((2S,5S,8S,11S,14S)-2-((1H-imidazol-4-yl)methyl)-14-((S)-2-amino-3-(1-trityl-1H-imidazol-4-yl)propanamido)-11-benzyl-8-(4-hydroxybenzyl)-5-(hydroxymethyl)-4,7,10,13,20-pentaoxo-3,6,9,12,19-pentaazaheptacosanamido)-N1-((S)-5-amino-1-(((S)-1-(((S)-1-(((S)-1-amino-1-oxo-3-phenylpropan-2-yl)amino)-5-guanidino-1-oxopentan-2-yl)amino)-1-oxopropan-2-yl)amino)-1,5-dioxopentan-2-yl)pentanediamide] (H-[His(Trt)]K(Octanoyl)FYSHQQARF-NH2)
- ECmax (−fold induction over basal) (GPR39): 13.4 ± 0.02 fold induction over basal

Molecule: CCCCCCCC(=O)NCCCC[C@H](NC(=O)[C@@H](N)Cc1cn(C(c2ccccc2)(c2ccccc2)c2ccccc2)cn1)C(=O)N[C@H](Cc1ccc(C)cc1)C(=O)N[C@@H](Cc1ccc(O)cc1)C(=O)O [HKFY-30, ((R)-2-((S)-2-((S)-2-amino-3-(1-trityl-1H-imidazol-4-yl)propanamido)-6-octanamidohexanamido)-3-(p-tolyl)propanoyl)-L-tyrosine] (H-[His(Trt)]K(Octanoyl)[dPhe(4-Me)]Y-OH)
- ECmax (−fold induction over basal) (GPR39): 23.88 ± 3.04 fold induction over basal
- activity level for GPR39 (in words) (GPR39; comment on Table 3): higher activity level than other HKFY derivatives
- activity and ECmax value for GPR39 (in words) (GPR39; comment on Table 3, derivatives composed of d-Phe(methyl)): most excellent activity and high ECmax value

Molecule: CCCCCCCC(=O)NCCCC[C@H](NC(=O)[C@@H](N)Cc1cn(C(c2ccccc2)c2ccc(F)cc2F)cn1)C(=O)N[C@H](Cc1ccc(C)cc1)C(=O)N[C@@H](Cc1ccc(O)cc1)C(=O)O (stereo partly drawn) [HKFY-32, ((2R)-2-((2S)-2-((2S)-2-amino-3-(1-((2,4-difluorophenyl)(phenyl)methyl)-1H-imidazol-4-yl)propanamido)-6-octanamidohexanamido)-3-(p-tolyl)propanoyl)-L-tyrosine]
- ECmax (−fold induction over basal) (GPR39): 21.5 ± 2.7 fold induction over basal

B1: HKFY-34 (peptide)
peptide: H(Benzhydryl)K(Octanoyl)[dPhe(4-Me)]Y
- EC50; SRE-luciferase reporter [1]: 7 nM
- ECmax; SRE-luciferase reporter [1]: 22.4 -fold induction over basal
- EC50; Reporter gene assay [2]: 6.7 nM
- ECmax; Reporter gene assay [2]: 22.4 -fold induction over basal
- EC50; Ca2+ influx assay (human GPR39): 2.7 nM
- ECmax; Ca2+ influx assay (human GPR39): 2.4 -fold induction over basal

Next, values leading:

- ECmax (−fold induction over basal) (GPR39): 12.1 ± 0.02 fold induction over basal
Molecule: CCCCCCCC(=O)NCCCC[C@H](NC(=O)[C@@H](N)Cc1cn(C(c2ccccc2)(c2ccccc2)c2ccccc2)cn1)C(=O)N[C@@H](Cc1ccccc1)C(=O)N[C@@H](Cc1ccc(O)cc1)C(=O)N[C@@H](CCC(N)=O)C(=O)N[C@@H](CC(N)=O)C(=O)N[C@@H](CCC(N)=O)C(=O)N[C@@H](C)C(=O)N[C@@H](CCCNC(=N)N)C(=O)N[C@@H](Cc1ccccc1)C(N)=O [HKFY-43, (S)-N1-((S)-1-(((S)-1-(((S)-1-amino-1-oxo-3-phenylpropan-2-yl)amino)-5-guanidino-1-oxopentan-2-yl)amino)-1-oxopropan-2-yl)-2-((2S,5S,8S,11S,14S)-2-(2-amino-2-oxoethyl)-14-((S)-2-amino-3-(1-trityl-1H-imidazol-4-yl)propanamido)-5-(3-amino-3-oxopropyl)-11-benzyl-8-(4-hydroxybenzyl)-4,7,10,13,20-pentaoxo-3,6,9,12,19-pentaazaheptacosanamido)pentanediamide] (H-[His(Trt)]K(Octanoyl)FYQNQARF-NH2)

- ECmax (−fold induction over basal) (GPR39): 20.2 ± 3.5 fold induction over basal
Molecule: CCCCCCCC(=O)NCCCC[C@H](NC(=O)[C@@H](N)Cc1cn(C(c2ccccc2)c2ccccc2)cn1)C(=O)N[C@H](Cc1ccc(C)cc1)C(=O)N[C@@H](Cc1ccc(O)cc1)C(N)=O [HKFY-66, N-((S)-5-((S)-2-amino-3-(1-benzhydryl-1H-imidazol-4-yl)propanamido)-6-(((R)-1-(((S)-1-amino-3-(4-hydroxyphenyl)-1-oxopropan-2-yl)amino)-1-oxo-3-(p-tolyl)propan-2-yl)amino)-6-oxohexyl)octanamide] (H-[His(τ-CHPh2)]K(Octanoyl)[dPhe(4-Me)]Y-NH2)

- ECmax (−fold induction over basal) (GPR39): 14.2 ± 3.75 fold induction over basal
Molecule: CCCCCCCC(=O)NCCCC[C@H](NC(=O)[C@@H](N)Cc1cn(C(c2ccccc2)(c2ccccc2)c2ccccc2)cn1)C(=O)N[C@H](Cc1ccc(C(F)(F)F)cc1)C(=O)N[C@@H](Cc1ccc(O)cc1)C(=O)O [HKFY-76, ((R)-2-((S)-2-((S)-2-amino-3-(1-trityl-1H-imidazol-4-yl)propanamido)-6-octanamidohexanamido)-3-(4-(trifluoromethyl)phenyl)propanoyl)-L-tyrosine] (H-[His(Trt)]K(Octanoyl)[dPhe(4-CF3)]Y-OH)

- ECmax (−fold induction over basal) (GPR39): 11.2 ± 1.4 fold induction over basal
Molecule: CCCCCCCC(=O)NCCCC[C@H](NC(=O)[C@@H](N)Cc1cn(C(c2ccccc2)c2ccccc2)cn1)C(=O)O [HKFY-79, N2-(Nt-benzhydryl-L-histidyl)-N6-octanoyl-L-lysine]

- ECmax (−fold induction over basal) (GPR39): 16.2 ± 1.5 fold induction over basal
Molecule: CCCCCCCC(=O)NCCCC[C@H](NC(=O)[C@@H](N)Cc1cn(C(c2ccccc2)(c2ccccc2)c2ccccc2)cn1)C(=O)N[C@@H](Cc1ccccc1)C(=O)N[C@@H](CO)C(=O)O [HKFY-50, N6-octanoyl-N2-(Nt-trityl-L-histidyl)-L-lysyl-L-phenylalanyl-L-serine] (H-[His(Trt)]K(Octanoyl)FS-OH)

- ECmax (−fold induction over basal) (GPR39): 10.8 ± 1.41 fold induction over basal
Molecule: CCCCCCCC(=O)NCCCC[C@H](NC(=O)[C@@H](N)Cc1cn(C(c2ccccc2)c2ccccc2)cn1)C(=O)N[C@H](Cc1ccc(C)cc1)C(=O)N[C@@H](Cc1ccc(O)c([N+](=O)[O-])c1)C(=O)O [HKFY-68, (S)-2-((R)-2-((S)-2-((S)-2-amino-3-(1-benzhydryl-1H-imidazol-4-yl)propanamido)-6-octanamidohexanamido)-3-(p-tolyl)propanamido)-3-(4-hydroxy-3-nitrophenyl)propanoic acid] (H-[His(τ-CHPh2)]K(Octanoyl)[dPhe(4-Me)][Tyr(3-NO2)]-OH)

- ECmax (−fold induction over basal) (GPR39): 18.3 ± 1.8 fold induction over basal
Molecule: CCCCCCCC(=O)NCCCC[C@H](NC(=O)[C@@H](N)Cc1cn(C(c2ccccc2)(c2ccccc2)c2ccccc2)cn1)C(=O)N[C@@H](Cc1ccccc1)C(=O)O [HKFY-49, N6-octanoyl-N2-(Nt-trityl-L-histidyl)-L-lysyl-L-phenylalanine] (H-[His(Trt)]-Lys(Octanoyl)-Phe-OH)
